In US8524770B2, “Wool care composition” (Director General, Defence Research & Development …, priority 2009, dated 2013):

Experiments:
[1] = test system: clothes moths; conditions: Abbott & Billings 1935, Journal of Economic Entomology; cited from earlier work
[2] = test system: clothes moths; assay: Protection of woollen articles / repellency against clothes moths; format: in vivo; conditions: confirmed by the present inventors
Excerpt: Conventionally naphthalene or Paradichlorobenzene is known in the art to be used to protect woollen and fur-feather lined articles from insect damage during their storage. But these above compounds are ineffective against clothes moths and thus unable to provide protection to the woollen items as established by Abbott & Billings of USA in 1935 and published their work in the Journal of Economic Entomology on page 493-495 as entitled “Further work showing that Paradichlorobenzene, Naphthalene and cedar oils are ineffective as repellents against clothes moth”. The ineffectiveness of the naphthalene balls in protection of woollen articles from insect pests is also confirmed by the present inventors.

Compound	Effectiveness as repellent against clothes moths [1]	Protection of woollen articles from insect pests [2]
Clc1ccc(Cl)cc1 [Paradichlorobenzene]	ineffective	–
c1ccc2ccccc2c1 [naphthalene]	ineffective	ineffectiveness
